Results: patent US9574239B2, “MicroRNA signatures in human ovarian cancer” (The Ohio State University Research Foundation, priority 2007, dated 2017)

Tests used:
Type in all cases: cell-based, human
OVCAR3 cells [1] = assay: Northern blot of miR-21 in OVCAR3 cells after demethylating treatment; details: OVCAR3, before vs after treatment; FIG. 5D
Method: Northern blot analysis was performed as previously described. RNA samples (10 μg each) were run on 15% Polyacrylamide, 7M Urea Criterion pre-casted gels (Bio-Rad, Hercules, Calif.) and transferred onto Hybond-N+ membranes (Amersham, Piscataway, N.J.). The hybridization was performed at 370 C in ULTRAhyb-Oligo hybrization buffer (Ambion, Austin, Tex.) for 16 hours. Membranes were washed at 370 C, twice with 2×SSPE and 0.5% SDS. 5S RNA or EtBr gel staining were used to normalize 200 ng of each probe was end labeled with 100 μCi [gamma-32P]-ATP using the polynucleotide kinase (Roche). Blots were stripped in boiling 0.1% SDS for 10 minutes before re-hybridization. OVCAR3 cells were seeded at low density 48 h before treatment with 10 μM 5′aza-2′deoxycytidine (5′-AZA, Sigma). After 24 h of treatment, cells were collected and total RNA was isolated using Trizol reagent (Invitrogen).

OVCAR3 cells [2] = assay: miR expression by microarray profiling of OVCAR3 cells before and after demethylating treatment; details: 10 μM, 24 h
Method: Total RNA isolation was performed with Trizol (Invitrogen, Carlsbad, Calif.) according to the manufacturer's instructions. RNA labeling and hybridization on microRNA microarray chips were performed as previously described (28) using 5 μg of total RNA from each sample. Hybridization was carried out on our microRNA microarray (Ohio State Comprehensive Cancer Center, version 2.0), which contains probes for 460 mature microRNAs spotted in quadruplicate (235 homo sapiens, 222 mus musculus, and three Arabidopsis thaliana) with annotated active sites. Often, more than one probe set exists for a given mature microRNA. Additionally, there are quadruplicate probes corresponding to most precursor microRNAs. Hybridization signals were detected with Streptavidin-Alexa647 conjugate and scanned images (Axon 4000B) were quantified using the Genepix 6.0 software (Axon Instruments, Sunnyvale, Calif.).
Microarray images were analyzed by using GENEPIX PRO. Average values of the replicate spots of each miRNA were background subtracted, normalized, and subjected to further analysis. We performed a global median normalization of Ovary microarray data by using BRB ArrayTools developed by Richard Simon & Amy Peng Lam (29). Absent calls were thresholded to 4.5 before subsequent statistical analysis. This level is the average minimum intensity level detected in the experiments. miRNA nomenclature was according to the Genome Browser (genome.ucsc.edu) and the miRNA database at Sanger Center (microrna.sanger.ac.uk/); in case of discrepancies the miRNA database was followed. Differentially expressed miRNAs were identified by using the t test procedure within significance analysis of microarrays (SAM), a method developed at Stanford University Labs based on recent paper of Tusher, Tibshirani and Chu (30).
OVCAR3 cells were seeded at low density 48 h before treatment with 10 μM 5′aza-2′deoxycytidine (5′-AZA, Sigma). After 24 h of treatment, cells were collected and total RNA was isolated using Trizol reagent (Invitrogen). 3 replicates for both untreated cells and AZA-treated cells were used to evaluate the miR expression by Microarray profiling. Differentially expressed microRNAs were identified by using univariate two-classes T-test with random variance model.

OVCAR3 cells [3] = assay: Real-Time PCR of miR expression levels in OVCAR3 cells after demethylating treatment; details: OVCAR3, before vs after treatment; FIG. 5C
Method: Relative expression was calculated using the comparative Ct method.

[4] = OVCAR3, before vs after treatment, p<0.001

## Nc1ncn([C@H]2C[C@H](O)[C@@H](CO)O2)c(=O)n1 [5-aza-2′-deoxycytidine]
OVCAR3 cells [1]
  miR-21 expression (Northern Blot, normalized with EtBr gel staining): up-modulation
OVCAR3 cells [2]; OVCAR3, before vs after treatment
  expression of miR-21, miR-203, miR-146b, miR-205, miR-30-5p and miR-30c: most significant induced upon treatment
OVCAR3 cells [2]; [4]
  human microRNAs differentially expressed (number): 11
  human microRNAs down-modulated (number): 2
  human microRNAs up-modulated (number): 9
OVCAR3 cells [2]; OVCAR3 cells
  levels of miR-21, miR-203 and miR-205 after demethylating treatment: significantly increased
OVCAR3 cells [3]
  expression levels of the 5 most significantly induced miRs (Real-Time PCR): up-modulation
